Measured values published in PubChem BioAssay (NCI).
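Exposure lasted 48 hours, with cells grown in 96-well plates and compounds tested at five concentrations. TGI marks complete inhibition of growth.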

How the values were obtained:
Assay in all cases: inhibition of tumour cell growth, NCI panel, 48 h
HOP-92 NSCLC = system: HOP-92 NSCLC
MDA-MB-435 = system: MDA-MB-435
NCI-H226 lung = system: NCI-H226 lung
PC-3 prostate = system: PC-3 prostate
SK-MEL-28 melanoma = system: SK-MEL-28 melanoma
EKVX NSCLC = system: EKVX NSCLC
IGROV1 ovarian = system: IGROV1 ovarian
ACHN renal = system: ACHN renal
SK-OV-3 ovarian = system: SK-OV-3 ovarian
MALME-3M melanoma = system: MALME-3M melanoma
UO-31 renal = system: UO-31 renal
SN12C renal = system: SN12C renal
HS 578T breast = system: HS 578T breast
A498 renal = system: A498 renal
MCF7 breast = system: MCF7 breast
OVCAR-3 ovarian = system: OVCAR-3 ovarian
SF-539 CNS = system: SF-539 CNS
OVCAR-4 ovarian = system: OVCAR-4 ovarian
UACC-62 melanoma = system: UACC-62 melanoma
T-47D breast = system: T-47D breast
BT-549 breast = system: BT-549 breast
HCC-2998 colon = system: HCC-2998 colon
LOX IMVI melanoma = system: LOX IMVI melanoma
CCRF-CEM leukemia = system: CCRF-CEM leukemia
OVCAR-8 ovarian = system: OVCAR-8 ovarian
DU-145 prostate = system: DU-145 prostate
A549 NSCLC = system: A549 NSCLC
HL-60(TB) leukemia = system: HL-60(TB) leukemia
HCT-15 colon = system: HCT-15 colon
COLO 205 colon = system: COLO 205 colon
HCT-116 colon = system: HCT-116 colon
SNB-75 CNS = system: SNB-75 CNS
HOP-62 NSCLC = system: HOP-62 NSCLC
NCI/ADR-RES ovarian = system: NCI/ADR-RES ovarian
MDA-MB-231 breast = system: MDA-MB-231 breast
SW-620 colon = system: SW-620 colon
OVCAR-5 ovarian = system: OVCAR-5 ovarian
MOLT-4 leukemia = system: MOLT-4 leukemia
TK-10 renal = system: TK-10 renal
UACC-257 melanoma = system: UACC-257 melanoma
SR leukemia = system: SR leukemia
SNB-19 CNS = system: SNB-19 CNS
KM12 colon = system: KM12 colon
CAKI-1 renal = system: CAKI-1 renal
U251 CNS = system: U251 CNS
MDA-N = system: MDA-N
NCI-H522 lung = system: NCI-H522 lung
K-562 leukemia = system: K-562 leukemia
786-0 renal = system: 786-0 renal
HT29 colon = system: HT29 colon
SF-295 CNS = system: SF-295 CNS
SK-MEL-5 melanoma = system: SK-MEL-5 melanoma
SF-268 CNS = system: SF-268 CNS
SK-MEL-2 melanoma = system: SK-MEL-2 melanoma
NCI-H23 lung = system: NCI-H23 lung
RPMI-8226 leukemia = system: RPMI-8226 leukemia
RXF 393 renal = system: RXF 393 renal
M14 melanoma = system: M14 melanoma
NCI-H460 lung = system: NCI-H460 lung

Work on `Cc1ccc(O)c(C(c2ccc(C(c3cc(C)ccc3O)c3cc(C)ccc3O)cc2)c2cc(C)ccc2O)c1` yielded a TGI (HOP-92 NSCLC) of 3.81 µM, a TGI (MDA-MB-435) of 3.29 µM and a TGI (NCI-H226 lung) of 3.61 µM. For the same molecule, the TGI (PC-3 prostate) was 3 µM, the TGI (SK-MEL-28 melanoma) was 3.5 µM and the TGI (EKVX NSCLC) was 3.57 µM. The TGI (IGROV1 ovarian) was 3.16 µM, the TGI (ACHN renal) was 3.17 µM and the TGI (SK-OV-3 ovarian) was 3.27 µM. For the same molecule, the TGI (MALME-3M melanoma) was 3.45 µM, the TGI (UO-31 renal) was 3.25 µM and the TGI (SN12C renal) was 3.1 µM. For the same molecule, the TGI (HS 578T breast) was 4.7 µM, the TGI (A498 renal) was 2.91 µM and the TGI (MCF7 breast) was 4.36 µM. For the same molecule, the TGI (OVCAR-3 ovarian) was 3.86 µM, the TGI (SF-539 CNS) was 3.29 µM and the TGI (OVCAR-4 ovarian) was 3.22 µM. It also gave a TGI (UACC-62 melanoma) of 3.15 µM, a TGI (T-47D breast) of 3.23 µM and a TGI (BT-549 breast) of 3.49 µM. It also gave a TGI (HCC-2998 colon) of 3.31 µM, a TGI (LOX IMVI melanoma) of 3.38 µM and a TGI (CCRF-CEM leukemia) of 5.63 µM. It also gave a TGI (OVCAR-8 ovarian) of 3.41 µM, a TGI (DU-145 prostate) of 3.21 µM and a TGI (A549 NSCLC) of 3.23 µM. For the same molecule, the TGI (HL-60(TB) leukemia) was 5.47 µM, the TGI (HCT-15 colon) was 3.2 µM and the TGI (COLO 205 colon) was 2.75 µM. It also gave a TGI (HCT-116 colon) of 3.04 µM, a TGI (SNB-75 CNS) of 3.49 µM and a TGI (HOP-62 NSCLC) of 4.36 µM. For the same molecule, the TGI (NCI/ADR-RES ovarian) was 3.85 µM, the TGI (MDA-MB-231 breast) was 2.67 µM and the TGI (SW-620 colon) was 3.48 µM. For the same molecule, the TGI (OVCAR-5 ovarian) was 3.28 µM, the TGI (MOLT-4 leukemia) was over 100 µM and the TGI (TK-10 renal) was 2.93 µM. It also gave a TGI (UACC-257 melanoma) of 3.33 µM, a TGI (SR leukemia) of 6.33 µM and a TGI (SNB-19 CNS) of 2.97 µM. It also gave a TGI (KM12 colon) of 3.09 µM, a TGI (CAKI-1 renal) of 2.92 µM and a TGI (U251 CNS) of 3.82 µM. It also gave a TGI (MDA-N) of 2.87 µM, a TGI (NCI-H522 lung) of 3.62 µM and a TGI (K-562 leukemia) of 3.56 µM. It also gave a TGI (786-0 renal) of 3.11 µM, a TGI (HT29 colon) of 3.57 µM and a TGI (SF-295 CNS) of 4.01 µM. It also gave a TGI (SK-MEL-5 melanoma) of 3.22 µM, a TGI (SF-268 CNS) of 3.31 µM and a TGI (SK-MEL-2 melanoma) of 3.89 µM. For the same molecule, the TGI (NCI-H23 lung) was 3.25 µM, the TGI (RPMI-8226 leukemia) was 3.4 µM and the TGI (RXF 393 renal) was 3.4 µM. The TGI (M14 melanoma) was 3.36 µM.
Work on `COc1cc([C@@H]2c3cc4c(cc3[C@@H](Nc3ccc(N=Cc5ccc(C(=O)O[C@@H](C(=O)O[C@H]6C[C@@]7(O)[C@@H](OC(=O)c8ccccc8)[C@@H]8[C@]9(OC(C)=O)CO[C@@H]9C[C@H](O)[C@@]8(C)C(=O)[C@H](OC(C)=O)C(=C6C)C7(C)C)[C@@H](NC(=O)c6ccccc6)c6ccccc6)cc5)cc3)[C@H]3COC(=O)[C@H]23)OCO4)cc(OC)c1O` yielded a TGI (HOP-92 NSCLC) of over 50 µM, a TGI (MDA-MB-435) of over 50 µM and a TGI (NCI-H226 lung) of 29.3 µM. It also gave a TGI (PC-3 prostate) of over 50 µM, a TGI (SK-MEL-28 melanoma) of over 50 µM and a TGI (EKVX NSCLC) of over 50 µM. It also gave a TGI (IGROV1 ovarian) of over 50 µM, a TGI (ACHN renal) of 10.5 µM and a TGI (SK-OV-3 ovarian) of over 35.8 µM. It also gave a TGI (MALME-3M melanoma) of over 50 µM, a TGI (SN12C renal) of 17.2 µM and a TGI (HS 578T breast) of over 50 µM. For the same molecule, the TGI (A498 renal) was 4.48 µM, the TGI (MCF7 breast) was over 50 µM and the TGI (OVCAR-3 ovarian) was over 50 µM. For the same molecule, the TGI (SF-539 CNS) was over 47.3 µM, the TGI (OVCAR-4 ovarian) was over 50 µM and the TGI (UACC-62 melanoma) was over 50 µM. The TGI (NCI-H460 lung) was 15.9 µM, the TGI (T-47D breast) was over 50 µM and the TGI (BT-549 breast) was over 50 µM. It also gave a TGI (HCC-2998 colon) of over 50 µM, a TGI (LOX IMVI melanoma) of over 50 µM and a TGI (CCRF-CEM leukemia) of 11 µM. For the same molecule, the TGI (OVCAR-8 ovarian) was over 50 µM, the TGI (DU-145 prostate) was 17.2 µM and the TGI (A549 NSCLC) was over 50 µM. It also gave a TGI (HL-60(TB) leukemia) of 9.73 µM, a TGI (HCT-15 colon) of over 50 µM and a TGI (COLO 205 colon) of over 50 µM. For the same molecule, the TGI (HCT-116 colon) was over 50 µM, the TGI (SNB-75 CNS) was 37.2 µM and the TGI (HOP-62 NSCLC) was over 40.2 µM. The TGI (NCI/ADR-RES ovarian) was over 50 µM, the TGI (MDA-MB-231 breast) was over 50 µM and the TGI (SW-620 colon) was over 50 µM. It also gave a TGI (OVCAR-5 ovarian) of over 39.1 µM, a TGI (MOLT-4 leukemia) of 10.5 µM and a TGI (TK-10 renal) of over 50 µM. The TGI (UACC-257 melanoma) was over 50 µM, the TGI (SR leukemia) was 0.35 µM and the TGI (SNB-19 CNS) was over 50 µM. The TGI (KM12 colon) was over 50 µM, the TGI (CAKI-1 renal) was 14.4 µM and the TGI (U251 CNS) was 35.4 µM. The TGI (MDA-N) was over 50 µM, the TGI (NCI-H522 lung) was over 50 µM and the TGI (K-562 leukemia) was over 22.5 µM. The TGI (786-0 renal) was 9.53 µM, the TGI (HT29 colon) was over 50 µM and the TGI (SF-295 CNS) was over 27.7 µM. The TGI (SK-MEL-5 melanoma) was over 42.9 µM, the TGI (SF-268 CNS) was over 45.6 µM and the TGI (SK-MEL-2 melanoma) was over 50 µM. It also gave a TGI (NCI-H23 lung) of over 38.9 µM, a TGI (RPMI-8226 leukemia) of 28.2 µM and a TGI (RXF 393 renal) of over 50 µM. It also gave a TGI (M14 melanoma) of over 50 µM.
